Assay results taken from US20240027450A1, “COMPOSITIONS AND METHODS FOR […]-COV-2 (COVID-19) AND FOR […]-COV-2-[…] IMM[…]” (QIAGEN SCIENCES LLC, priority 2020, published 2024).

Test system: T cells in whole blood samples
Assay: IFN-γ release (QuantiFERON SARS-CoV-2 tubes, ELISA) in whole blood of vaccinated donors, Example 2
Assay type: cell-based, human

phytohemagglutinin [Mit]
IFN-γ, Nil-subtracted (Donor 1, Day 4 after first dose of vaccine): 7.19 IU/mL | IFN-γ, Nil-subtracted (Donor 1, Day 11 after first dose of vaccine): >10 IU/mL | IFN-γ, Nil-subtracted (Donor 2, Day 4 after first dose of vaccine): 5.74 IU/mL | IFN-γ, Nil-subtracted (Donor 2, Day 11 after first dose of vaccine): >10 IU/mL | IFN-γ, Nil-subtracted (Donor 3, Day 4 after first dose of vaccine): 7.07 IU/mL | IFN-γ, Nil-subtracted (Donor 3, Day 11 after first dose of vaccine): >10 IU/mL | IFN-γ, Nil-subtracted (Donor 4, Day 4 after first dose of vaccine): 5.78 IU/mL | IFN-γ, Nil-subtracted (Donor 4, Day 11 after first dose of vaccine): >10 IU/mL | IFN-γ, Nil-subtracted (Donor 5, Day 4 after first dose of vaccine): 7.13 IU/mL | IFN-γ, Nil-subtracted (Donor 5, Day 11 after first dose of vaccine): >10 IU/mL | IFN-γ, Nil-subtracted (Donor 6, Day 4 after first dose of vaccine): 6.59 IU/mL | IFN-γ, Nil-subtracted (Donor 6, Day 11 after first dose of vaccine): >10 IU/mL | IFN-γ, Nil-subtracted (Donor 7, Day 4 after first dose of vaccine, […]): 3.01 IU/mL | IFN-γ, Nil-subtracted (Donor 7, Day 11 after first dose of vaccine): >10 IU/mL | IFN-γ, Nil-subtracted (Donor 8, Day 7 after first dose of vaccine): 7.13 IU/mL | IFN-γ, Nil-subtracted (Donor 9, Day 0 after first dose of vaccine): 6.19 IU/mL | IFN-γ, Nil-subtracted (Donor 9, Day 7 after first dose of vaccine): >10 IU/mL | IFN-γ, Nil-subtracted (Donor 10, Day 7 (Second Dose)): >10 IU/mL | IFN-γ, Nil-subtracted (Donor 10, Day 22 (First-dose)): >10 IU/mL
